{"source": "paper PMC9387934", "about": "“Randomized single oral dose phase 1 study of safety, tolerability, and pharmacokinetics of Iminosugar UV-4 Hydrochloride (UV-4B) in healthy subjects” (PLoS Neglected Tropical Diseases, 2022)", "key": {"CYP2C9": {"test_system": "CYP2C9", "set-up": "method as in Investigator’s Brochure (IB)", "conditions": "in vitro; ref Investigator’s Brochure (IB); cited from earlier work"}, "CYP2A6": {"test_system": "CYP2A6", "set-up": "method as in Investigator’s Brochure (IB)", "conditions": "in vitro; ref Investigator’s Brochure (IB); cited from earlier work"}, "ER α-glucosidase enzymes": {"test_system": "ER α-glucosidase enzymes", "set-up": "method as in PMID 32227946", "conditions": "single dose of UV-4; cited from earlier work"}, "CYP2D6": {"test_system": "CYP2D6", "set-up": "method as in Investigator’s Brochure (IB)", "conditions": "in vitro; ref Investigator’s Brochure (IB); cited from earlier work"}, "CYP2E1": {"test_system": "CYP2E1", "set-up": "method as in Investigator’s Brochure (IB)", "conditions": "in vitro; ref Investigator’s Brochure (IB); cited from earlier work"}, "all ten CYPs": {"test_system": "all ten CYPs", "set-up": "method as in Investigator’s Brochure (IB)", "conditions": "all ten CYPs at the tested conditions; ref Investigator’s Brochure (IB); cited from earlier work"}, "[1]": {"assay": "Cardiovascular assessment in dogs, single dose GLP study (UV4-COV-0023)", "format": "in vivo", "conditions": "dog, 50 mg/kg", "source_text": "dependent from lowest to highest partitioning in mouse, rat, human, and dog. Mean blood cell partitioning ranged from 29.7% to 37.2% in mouse, 32.1% to 35.1% in rat, 32.7% to 53.3% in human, and 58.6% to 63.8% in dog. […]\nhepatocytes. Metabolism was minimal and appears to involve O-demethylation, oxidation, and direct glucuronidation of UV-4. Three metabolites were tentatively identified in mouse and dog hepatocytes, whereas only the O-demethylation and oxidation metabolites, but not the direct glucuronidation product of UV-4, were found in human hepatocytes.\nFollowing a single oral dose, UV-4 appears to be rapidly excreted with t1/2 values ranging from 2 hours in ferrets, 3 to 5 hours in mice and rats, and 4 to 9 hours in dogs. In rats, urinary excretion of UV-4 after an oral dose of UV-4B was rapid, with the highest percent dose excreted in the initial 0 to 4 hour period after dosing. […]\nBased on the dog NOAEL [10 mg/kg/dose TID] and the appropriate conversion recommended in the FDA guidance (e.g., 60 kg body weight for humans), the HED for the NOAEL of UV-4B in dog is 333 mg TID. Considering that the lowest dose tested in dogs (2 mg/kg TID or expressed as HED, 67 mg TID) was associated with decreases in PLT count (mild), increases in aPTT (very mild), increases in AST (up to 3x BL), and histopathological changes, a 100-fold safety factor was applied to the NOAEL. […]"}, "[2]": {"conditions": "compared with UV-4; cited from earlier work"}, "[3]": {"set-up": "method as in Investigator’s Brochure (IB)", "conditions": "mice, up to 250 mg/kg TID (750 mg/kg/day); ref Investigator’s Brochure (IB); cited from earlier work"}, "[4]": {"conditions": "cited from earlier work"}, "[5]": {"set-up": "method as in Investigator’s Brochure (IB)", "conditions": "in vivo; ref Investigator’s Brochure (IB); cited from earlier work"}, "[6]": {"conditions": "cited from earlier work", "remark": "listed apart in the source"}, "[7]": {"conditions": "dog, 2 TID mg/kg, Day 28 (Recovery)"}, "[8]": {"conditions": "dog, 10 TID mg/kg (NOAEL), Day 28 (Recovery)"}, "[9]": {"conditions": "dogs, 10 mg/kg/dose TID, ref Investigator’s Brochure (IB)"}}, "note": "Where a name gives a salt, the structure may show the parent alone. Read-outs that look alike come from different tables or passages of the source.", "data": [{"molecule": "COCCCCCCCCCN1C[C@H](O)[C@@H](O)[C@H](O)[C@H]1CO", "note": "[UV-4, N-(9’-methoxynonyl)-1-deoxynojirimycin]", "values": [{"measurement": "Direct inhibition of CYP2C9", "setting": "CYP2C9", "value": "No clinically relevant direct inhibition"}, {"measurement": "Direct inhibition of CYP2A6", "setting": "CYP2A6", "value": "No clinically relevant direct inhibition"}, {"measurement": "Duration of pharmacodynamic effect on the target ER α-glucosidase enzymes", "setting": "ER α-glucosidase enzymes", "value": "at least 72 hours"}, {"measurement": "Direct inhibition of CYP2D6", "setting": "CYP2D6", "value": "No clinically relevant direct inhibition"}, {"measurement": "Direct inhibition of CYP2E1", "setting": "CYP2E1", "value": "No clinically relevant direct inhibition"}, {"measurement": "Potential for metabolism-dependent inhibition", "setting": "all ten CYPs", "value": "no significant potential"}]}, {"molecule": "COCCCCCCCCCN1C[C@H](O)[C@@H](O)[C@H](O)[C@H]1CO", "note": "[UV-4B, N-(9’-methoxynonyl)-1-deoxynojirimycin hydrochloride]", "values": [{"measurement": "Multiple of predicted minimum clinically efficacious dose at which arterial pulse pressure decreased", "setting": "[1]", "value": "approximately 30 fold"}, {"measurement": "Solubility of the hydrochloride salt", "setting": "[2]", "value": "higher solubility"}, {"measurement": "CNS assessments", "setting": "[3]", "value": "no adverse treatment-related effects"}, {"measurement": "Vacuoles in kidney (F)", "setting": "[4]; rat, 25 TID mg/kg", "value": "P(F)"}, {"measurement": "Swollen paws/legs and perioral appearance and red skin, paws and/or feet", "setting": "[4]; rat, 60 TID mg/kg, second symbol (later day)", "value": "−"}, {"measurement": "Decreased lymphocytes in mesenteric lymph node (F)", "setting": "[4]; rat, 60 TID mg/kg", "value": "P(F)"}, {"measurement": "Possible histamine-like in-life clinical signs", "setting": "[4]; rats, 60 mg/kg/dose TID, Day 1 or Day 2, transient, ref Investigator’s Brochure (IB)", "value": "swollen paws/legs and perioral appearance"}, {"measurement": "No observed effect level (NOEL)", "setting": "[4]; rats, TID for seven days, lowest dose exceeded the NOEL, ref Investigator’s Brochure (IB)", "value": "< 10", "unit": "mg/kg/dose"}, {"measurement": "Time to appearance of histamine-like signs after treatment", "setting": "[4]; rats, first or second daily dose of 60 mg/kg/dose (TID), ref Investigator’s Brochure (IB)", "value": "≤ 120", "unit": "min"}, {"measurement": "Finding at 25 mg/kg/dose (TID)", "setting": "[4]; rats, seven days, ref Investigator’s Brochure (IB)", "value": "dose-limiting erosions/ulcerations in the stomach"}, {"measurement": "Mouse bone marrow micronucleus", "setting": "[5]", "value": "not found to be mutagenic or clastogenic"}, {"measurement": "AST", "setting": "[6]; [7]", "value": "−"}, {"measurement": "Decreased thymus weight", "setting": "[6]; [7]", "value": "−"}, {"measurement": "Lymphocyte depletion", "setting": "[6]; [7]", "value": "−"}, {"measurement": "PLT", "setting": "[6]; [7]", "value": "−"}, {"measurement": "Decreased thymus weight", "setting": "[6]; dog, 10 TID mg/kg (NOAEL), Day 28 (Recovery), females", "value": "−(F)"}, {"measurement": "Decreased thymus weight", "setting": "[6]; dog, 10 TID mg/kg (NOAEL), Day 28 (Recovery), males", "value": "↓(M)"}, {"measurement": "ALT", "setting": "[6]; [8]", "value": "−"}, {"measurement": "AST", "setting": "[6]; [8]", "value": "−"}, {"measurement": "Inverted AST/ALT ratio", "setting": "[6]; [8]", "value": "−"}, {"measurement": "Lymphoid depletion in thymus, spleen, lymph nodes and GALT", "setting": "[6]; [8]", "value": "−"}, {"measurement": "Nonformed feces", "setting": "[6]; [8]", "value": "−"}, {"measurement": "PLT", "setting": "[6]; [8]", "value": "−"}, {"measurement": "Reticulocyte count", "setting": "[6]; [8]", "value": "−"}, {"measurement": "aPTT", "setting": "[6]; [8]", "value": "−"}, {"measurement": "Increase in ALT", "setting": "[6]; [9]", "value": "up to 2.9 x BL"}, {"measurement": "Increase in AST", "setting": "[6]; [9]", "value": "up to 9.7 x BL"}, {"measurement": "Increase in aPTT", "setting": "[6]; [9]", "value": 2.2, "unit": "x BL"}, {"measurement": "NOAEL", "setting": "[6]; dogs, 14 days of TID administration, ref Investigator’s Brochure (IB)", "value": 30, "unit": "mg/kg/day"}, {"measurement": "No observed effect level (NOEL)", "setting": "[6]; dogs, 14 days, lowest dose exceeded the NOEL, ref Investigator’s Brochure (IB)", "value": "< 2", "unit": "mg/kg/dose TID"}, {"measurement": "NOAEL", "setting": "[6]; dogs, 14 days, ref Investigator’s Brochure (IB)", "value": 10, "unit": "mg/kg/dose TID"}, {"measurement": "Average (male and female) AUC(0-8)", "setting": "[6]; dogs, end of dosing phase, at NOAEL 30 mg/kg/day, ref Investigator’s Brochure (IB)", "value": "10,940 ng•h/mL"}]}]}
